Data reported in PubChem BioAssay (NCI).
“And” between values parts separate entries of the source, which are not always exact repeats. Equal values may be shown once.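 These data come from cells grown in 96-well plates and exposed to compound for 48 hours at five concentrations. Here, GI50 denotes the concentration required for 50% inhibition of growth. TGI is the concentration that stops growth completely.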

Key:
Assay in all cases: NCI tumour cell line growth inhibition, 48 h
DMS 114 small cell lung = tested on: DMS 114 small cell lung
DMS 273 small cell lung = tested on: DMS 273 small cell lung
LXFL 529 NSCLC = tested on: LXFL 529 NSCLC
M19-MEL melanoma = tested on: M19-MEL melanoma
SNB-78 CNS = tested on: SNB-78 CNS
XF 498 CNS = tested on: XF 498 CNS
HOP-18 NSCLC = tested on: HOP-18 NSCLC
RXF-631 renal = tested on: RXF-631 renal
MDA-N = tested on: MDA-N

SMILES	TGI (DMS 114 small cell lung) [µM]	GI50 (DMS 273 small cell lung) [µM]	TGI (DMS 273 small cell lung) [µM]	GI50 (LXFL 529 NSCLC) [µM]	TGI (LXFL 529 NSCLC) [µM]	GI50 (M19-MEL melanoma) [µM]	TGI (M19-MEL melanoma) [µM]	TGI (SNB-78 CNS) [µM]	TGI (XF 498 CNS) [µM]	TGI (HOP-18 NSCLC) [µM]	TGI (RXF-631 renal) [µM]	GI50 (HOP-18 NSCLC) [µM]	GI50 (SNB-78 CNS) [µM]	GI50 (XF 498 CNS) [µM]	TGI (MDA-N)	GI50 (DMS 114 small cell lung) [µM]
COc1ccc2c([nH]c3cc(O)c(C)cc32)c1CC=C(C)C	> 25	8.43	16.8	8.63	> 25	12.2	> 25	> 25	> 25							
N#CC(C(=O)C(=O)Nc1ccc(Cl)c(Cl)c1)c1ccc(Cl)cc1 (configuration not stated)	45.7		> 100		> 100			> 100	> 100	> 100						
CCOC(=O)/C(=C/c1ccc(Cl)cc1)N(CC)CC					> 100		> 100	> 100	> 100	> 100						
O=c1nc(-c2ccccc2)scc1-c1ccccc1	> 100				> 100		> 100		> 100	> 100	> 100					
CCC[CH2][Ge]([CH2]CCC)([CH2]CCC)[O]C(=O)C(OC(C)=O)c1ccccc1 (configuration not stated)		5.84	> 37	1.31	21	5.13	20.3	24.7	15.4	43.8		16.2	2.99	2.57		
CC1=C2[C@@H](c3ccccc3)C3C=CC2(c2ccccc23)N(C(=O)Nc2cccc3ccccc23)C1=O (some centres not stated)	> 100		> 100		> 100			> 100	> 100	> 100						
CN1CCN(CCCN2c3ccccc3Sc3ccc(C(F)(F)F)cc32)CC1	23.4		19.8		23		3.75	32.1		21.5					12.5 µM and 12.3 µM	
Cc1ccc(C(O)/C(=N/N)c2nc3ccc([N+](=O)[O-])cc3[nH]c2=O)cc1 (configuration not stated)	> 100		> 100		> 100		> 100	> 100	> 100							
C=C(CN(C)C)C(=O)c1ccc(OC)cc1	8.38		11.6		3.31		7.52	7.83	5.1	9.35					22.5 µM	
C[CH2][Sn]([Cl])([CH2]C)[CH2]C	4.7			0.469	3.27	2.06	11.4	5.04	3.26				0.922	0.867		0.968
C[C@]12CC/C(=N\OC(=O)Nc3ccccc3)C=C1CC[C@@H]1C2CC[C@@]2(C)C1CC[C@@H]2OC(=O)Nc1ccccc1 (some centres not stated)	> 100		> 100		> 100		> 100	> 100	27.3	> 100						
N#Cc1nc(Nc2ccc(Cl)cc2)sc1N	73.7		> 63.8		22.7		> 100	> 100	> 100	> 100						
COc1cccc(N2C(=O)[C@H]3[C@H]4CC(C(C)(C)C)CC[C@H]4c4c([nH]c5ccccc45)[C@H]3C2=O)c1 (some centres not stated)	38		36.8		42.3		44.1	35.3			33.2					
C/C=C/C=C\C(=O)C1c2cccc(O)c2C(=O)c2c(O)cc(C)cc21 (configuration not stated)	1.39		3.06				2.16		0.57	3.32						
CO[C@]12CCC(=O)N1C=Cc1c2[nH]c2ccccc12	> 100				> 100		> 100	> 100		> 100						
COC(=O)C1=C(C)N(NC(=O)c2cccc(Cl)c2)C(C)(O)C12CCOC2=O (configuration not stated)	> 100		> 100		> 100		> 100	> 100	> 100		> 100					
